This is an account of results in ChEMBL document CHEMBL5390302, “Novel PARP7 Inhibitors for Treating Cancer” (ACS Med Chem Lett, 2023).

The target of the experiment is T1, Protein mono-ADP-ribosyltransferase TIPARP (Homo sapiens, UniProt Q7Z3E1).
T1 sequence (Q7Z3E1 whole entry): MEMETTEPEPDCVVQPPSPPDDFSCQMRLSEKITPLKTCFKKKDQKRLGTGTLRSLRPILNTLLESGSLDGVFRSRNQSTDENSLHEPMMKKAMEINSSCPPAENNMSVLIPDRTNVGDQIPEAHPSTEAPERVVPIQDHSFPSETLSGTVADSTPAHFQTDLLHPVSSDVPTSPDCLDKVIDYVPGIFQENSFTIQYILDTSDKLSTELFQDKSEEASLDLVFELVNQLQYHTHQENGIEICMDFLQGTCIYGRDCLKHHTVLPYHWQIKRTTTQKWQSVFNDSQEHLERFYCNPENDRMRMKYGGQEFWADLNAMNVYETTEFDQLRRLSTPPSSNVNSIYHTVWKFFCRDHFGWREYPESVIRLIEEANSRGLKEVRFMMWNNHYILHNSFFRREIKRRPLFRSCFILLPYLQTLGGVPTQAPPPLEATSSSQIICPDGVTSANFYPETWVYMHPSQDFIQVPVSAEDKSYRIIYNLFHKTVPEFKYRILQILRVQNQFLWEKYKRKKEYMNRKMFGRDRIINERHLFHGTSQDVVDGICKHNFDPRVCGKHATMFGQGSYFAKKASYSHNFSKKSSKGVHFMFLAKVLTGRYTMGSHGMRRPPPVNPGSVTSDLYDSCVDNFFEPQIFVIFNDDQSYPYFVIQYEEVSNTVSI
Description: Displacement of biotinylated RBN011147 probe from PARP7 (unknown origin) preincubated for 1 hr followed by incubation with probe for 1.5 hrs by MSD electrochemiluminescent assay.

For `C[C@@H](CCCn1ccc2cc(-c3ncc(Cl)c(N)n3)c(F)cc2c1=O)Nc1cn[nH]c(=O)c1C(F)(F)F`, the half-maximal inhibitory concentration (IC50) (in general, the concentration needed to halve the response being measured) came to 188 pM.

`C[C@@H](CCCn1ccc2cc(-c3ncc(C(F)(F)F)c(N4CC(C#N)C4)n3)c(F)cc2c1=O)Nc1cn[nH]c(=O)c1C(F)(F)F` had a concentration for half-maximal inhibition (IC50) of 188 pM.

Turning to `C[C@@H](CCCn1ccc2cc(-c3ncc(C(F)(F)F)c(N4C[C@@H](O)[C@@H]4C)n3)c(F)cc2c1=O)Nc1cn[nH]c(=O)c1C(F)(F)F`, the concentration for half-maximal inhibition (IC50) came to 185 pM.
